Source: patent publication US20250214932A1, “T-TYPE CALCIUM CHANNEL MODULATORS COMPRISING AN AZASPIRONONANE CORE AND METHODS OF USE THEREOF” (Praxis Precision Medicines, Inc., priority 2022, published 2025)

Molecular target: Human Cav3.1 (Homo sapiens (Human), UniProt O43497)
Assay: Human Cav3.1 calcium channel patch clamp assay (SyncroPatch 384PE, HEK-293 natClytin/TASK1+Cav3.1 cell line)
Type: cell-based
Settings: voltage dependent block (VDB); read-out: Cav3.1 (VDB) IC50
Protocol: Pulse generation and data collection were performed with PatchController384 V1.3.0 and DataController384 V1.2.1 (Nanion Technologies). Off-line analysis was performed using Excel and Graphpad Prism (V 8.4.2) with complete data files uploaded to Dotmatics. The access resistance and apparent membrane capacitance were estimated using built-in protocols. Current was recorded in whole cell configuration from a population of cells. The cells were lifted, triturated, and resuspended at 800,000 cells/ml. The cells were allowed to recover in the cell hotel prior to experimentation. Currents were recorded at room temperature. The external solution contained the following (in mM): NaCl 80, NMDG 60, KCl 4, MgCl2 1, CaCl2 6, glucose 5 and HEPES 10 (pH=7.4, Osmolarity ˜300 mOsm). The extracellular solution was used as the wash, reference and compound delivery solution. […] The compound plate was created at 2× concentrated in the extracellular solution. The compound was diluted to 1:2 when added to the recording well. The amount of DMSO in the extracellular solution was held constant at the level used for the highest tested concentration. For the voltage clamp experiments on Cav3.1, data were sampled at 10 KHz. After establishment of the seal and the passage in the whole cell configuration, the cells were held at −120 mV. Cav3.1 current was evoked using a 100 ms step to −20 mV (to measure resting state block), followed by a 1600 ms step to −65 mV and a second 100 ms step to −20 mV (to measure voltage dependent block). The voltage protocol was applied every 15 seconds in the absence and in the presence of the compounds under investigation. […] Current amplitude (pA) was measured in the peak 1 and 2. The average of last 3 sweeps of each liquid period (vehicle, compound under investigation, full block) was calculated. Nickel-sensitive current was used to calculate the % of inhibition in the presence of the compound under investigation.
Pulse generation and data collection were performed with PatchController384 V1.3.0 and DataController384 V1.2.1 (Nanion Technologies). Off-line analysis was performed using Excel and Graphpad Prism (V 8.4.2) with complete data files uploaded to Dotmatics. The access resistance and apparent membrane capacitance were estimated using built-in protocols. Current was recorded in whole cell configuration from a population of cells.
The cells were lifted, triturated, and resuspended at 800,000 cells/ml. The cells were allowed to recover in the cell hotel prior to experimentation. Currents were recorded at room temperature. The external solution contained the following (in mM): NaCl 80, NMDG 60, KCl 4, MgCl2 1, CaCl2 6, glucose 5 and HEPES 10 (pH=7.4, Osmolarity ˜300 mOsm). The extracellular solution was used as the wash, reference and compound delivery solution.
The compound plate was created at 2× concentrated in the extracellular solution. The compound was diluted to 1:2 when added to the recording well. The amount of DMSO in the extracellular solution was held constant at the level used for the highest tested concentration. For the voltage clamp experiments on Cav3.1, data were sampled at 10 KHz. After establishment of the seal and the passage in the whole cell configuration, the cells were held at −120 mV. Cav3.1 current was evoked using a 100 ms step to −20 mV (to measure resting state block), followed by a 1600 ms step to −65 mV and a second 100 ms step to −20 mV (to measure voltage dependent block). The voltage protocol was applied every 15 seconds in the absence and in the presence of the compounds under investigation. […] Current amplitude (pA) was measured in the peak 1 and 2. The average of last 3 sweeps of each liquid period (vehicle, compound under investigation, full block) was calculated. Nickel-sensitive current was used to calculate the % of inhibition in the presence of the compound under investigation.

Human Cav3.1, sequence (O43497 whole entry): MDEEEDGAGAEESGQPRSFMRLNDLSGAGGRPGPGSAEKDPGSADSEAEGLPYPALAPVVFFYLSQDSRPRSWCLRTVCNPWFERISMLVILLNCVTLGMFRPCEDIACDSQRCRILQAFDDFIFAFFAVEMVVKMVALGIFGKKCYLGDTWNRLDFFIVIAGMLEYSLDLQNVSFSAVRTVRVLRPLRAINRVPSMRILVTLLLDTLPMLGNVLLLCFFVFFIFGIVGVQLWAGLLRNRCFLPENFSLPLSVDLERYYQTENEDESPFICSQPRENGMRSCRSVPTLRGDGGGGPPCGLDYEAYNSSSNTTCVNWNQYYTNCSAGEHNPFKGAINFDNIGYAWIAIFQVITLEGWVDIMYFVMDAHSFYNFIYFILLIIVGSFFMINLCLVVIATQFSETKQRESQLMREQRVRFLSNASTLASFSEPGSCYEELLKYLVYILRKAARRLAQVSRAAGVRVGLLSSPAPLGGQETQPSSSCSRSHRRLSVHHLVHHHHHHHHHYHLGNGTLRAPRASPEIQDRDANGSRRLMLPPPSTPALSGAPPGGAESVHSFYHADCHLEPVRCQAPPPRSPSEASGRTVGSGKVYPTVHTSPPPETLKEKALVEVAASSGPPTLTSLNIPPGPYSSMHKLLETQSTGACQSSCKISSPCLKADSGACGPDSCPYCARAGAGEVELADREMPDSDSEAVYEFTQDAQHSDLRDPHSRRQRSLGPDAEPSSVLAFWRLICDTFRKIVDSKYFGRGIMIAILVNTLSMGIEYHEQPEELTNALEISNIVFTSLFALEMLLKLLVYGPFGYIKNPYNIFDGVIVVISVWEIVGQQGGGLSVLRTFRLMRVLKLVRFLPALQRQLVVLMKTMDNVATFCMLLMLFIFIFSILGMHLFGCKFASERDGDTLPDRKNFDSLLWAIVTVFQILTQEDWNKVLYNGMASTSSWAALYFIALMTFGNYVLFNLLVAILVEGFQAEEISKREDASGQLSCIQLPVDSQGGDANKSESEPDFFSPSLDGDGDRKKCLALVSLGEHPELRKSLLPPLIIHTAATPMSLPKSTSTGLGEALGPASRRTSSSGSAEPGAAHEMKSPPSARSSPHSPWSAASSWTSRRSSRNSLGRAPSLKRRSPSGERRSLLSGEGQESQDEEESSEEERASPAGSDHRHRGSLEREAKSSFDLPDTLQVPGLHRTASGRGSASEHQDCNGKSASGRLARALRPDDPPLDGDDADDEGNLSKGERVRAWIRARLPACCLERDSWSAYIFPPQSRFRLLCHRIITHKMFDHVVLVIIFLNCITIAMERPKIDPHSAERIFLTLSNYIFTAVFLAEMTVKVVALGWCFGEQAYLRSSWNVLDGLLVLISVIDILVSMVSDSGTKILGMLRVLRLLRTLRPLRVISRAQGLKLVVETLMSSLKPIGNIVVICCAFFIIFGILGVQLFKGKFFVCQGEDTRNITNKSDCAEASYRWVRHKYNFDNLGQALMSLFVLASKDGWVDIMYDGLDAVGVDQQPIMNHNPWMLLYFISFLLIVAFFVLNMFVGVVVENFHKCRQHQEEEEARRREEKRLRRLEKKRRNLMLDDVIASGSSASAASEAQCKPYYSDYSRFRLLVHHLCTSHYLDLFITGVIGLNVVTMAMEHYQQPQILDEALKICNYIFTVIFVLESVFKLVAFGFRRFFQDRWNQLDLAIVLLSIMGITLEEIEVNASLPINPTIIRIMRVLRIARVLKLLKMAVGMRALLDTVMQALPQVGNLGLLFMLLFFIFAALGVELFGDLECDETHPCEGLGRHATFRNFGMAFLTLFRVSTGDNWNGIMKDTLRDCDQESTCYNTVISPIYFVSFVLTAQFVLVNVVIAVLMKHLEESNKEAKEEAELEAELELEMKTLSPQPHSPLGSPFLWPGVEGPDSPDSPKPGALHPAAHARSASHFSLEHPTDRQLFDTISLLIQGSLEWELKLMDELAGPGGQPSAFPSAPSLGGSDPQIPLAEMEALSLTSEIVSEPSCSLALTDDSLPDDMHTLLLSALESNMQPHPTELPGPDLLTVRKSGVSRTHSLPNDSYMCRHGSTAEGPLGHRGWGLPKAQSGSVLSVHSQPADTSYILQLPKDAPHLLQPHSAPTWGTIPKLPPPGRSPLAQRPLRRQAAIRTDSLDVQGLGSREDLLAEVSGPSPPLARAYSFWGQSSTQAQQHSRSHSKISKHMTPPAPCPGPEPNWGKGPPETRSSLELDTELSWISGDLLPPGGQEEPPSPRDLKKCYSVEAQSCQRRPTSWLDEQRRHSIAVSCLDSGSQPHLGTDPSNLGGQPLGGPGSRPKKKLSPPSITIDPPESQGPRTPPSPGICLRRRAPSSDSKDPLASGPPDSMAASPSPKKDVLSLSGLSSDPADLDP

Compared with O=C(Nc1cc(F)cc(Cl)c1)C1CCC2(CC1)CN(CC1(O)CCC(F)(F)CC1)C2 [Example 60], O=C(Nc1cc(F)cc(Cl)c1)C1CCC2(CC1)CN(CC1(F)CCC(F)(F)CC1)C2 [Example 73] is 2.6-fold higher in IC50: 130 nM for the first, 333 nM for the second. The first is the more potent here.

O=C(Nc1cc(F)cc(Cl)c1)C1CCC2(CC1)CN(CC1CCC(F)(F)CC1)C2 [Example 61] and N#CC1(CN2CC3(CCC(C(=O)Nc4cc(F)cc(Cl)c4)CC3)C2)CCC(F)(F)CC1 [Example 107] are within 1.5-fold of each other in IC50: 440 nM for the first, 427 nM for the second.

CC(C)(C)NC(=O)CN1CC2(CCC(C(=O)Nc3cccc(C(F)F)c3)CC2)C1 [Example 62] and CC(C)(NC(=O)CN1CC2(CCC(C(=O)Nc3cccc(C(F)F)c3)CC2)C1)C(F)(F)F [Example 65] are within 1.5-fold of each other in IC50: 511 nM for the first, 430 nM for the second.

CC(C)(C)NC(=O)CN1CC2(CCC(C(=O)Nc3cccc(OC(F)(F)F)c3)CC2)C1 [Example 63] and CC(C)(NC(=O)CN1CC2(CCC(C(=O)Nc3cccc(OC(F)(F)F)c3)CC2)C1)C(F)(F)F [Example 70] are within 1.5-fold of each other in IC50: 492 nM for the first, 333 nM for the second.

Compared with CC1(OC(=O)CN2CC3(CCC(C(=O)Nc4cc(F)cc(Cl)c4)CC3)C2)CC1 [Example 64], CC1(OC(=O)NCCN2CC3(CCC(C(=O)Nc4cc(F)cc(Cl)c4)CC3)C2)CC1 [Example 81] is 2-fold lower in IC50: 617 nM for the first, 307 nM for the second.

Going from CC(C)(NC(=O)CN1CC2(CCC(C(=O)Nc3cccc(C(F)(F)F)c3)CC2)C1)C(F)(F)F [Example 66] to CC(C)(NC(=O)CN1CC2(CCC(C(=O)Nc3cccc(OC(F)F)c3)CC2)C1)C(F)(F)F [Example 69], the IC50 falls from 372 nM to 235 nM (1.6-fold).

Going from CC(C)(C)ONC(=O)CN1CC2(CCC(C(=O)Nc3cc(F)cc(Cl)c3)CC2)C1 [Example 67] to CC(C)(C#N)CN1CC2(CCC(C(=O)Nc3cc(F)cc(Cl)c3)CC2)C1 [Example 121], the IC50 rises from 580 nM to 1260 nM (2.2-fold).

Going from CC1(C)CCC(=O)N1CCN1CC2(CCC(C(=O)Nc3cc(F)cc(C(F)F)c3)CC2)C1 [Example 71] to CN(CCN1CC2(CCC(C(=O)Nc3cc(F)cc(C(F)F)c3)CC2)C1)C(=O)C1(C)CC1 [Example 72], the IC50 rises from 588 nM to 1040 nM (1.8-fold).

O=C(Nc1cc(F)cc(Cl)c1)C1CCC2(CC1)CN(CC(F)(F)C1CCCCC1)C2 [Example 74] and O=C(Nc1cc(F)cc(Cl)c1)C1CCC2(CC1)CN(CC(F)(F)C1CCCC1)C2 [Example 78] are within 1.5-fold of each other in IC50: 941 nM for the first, 1070 nM for the second.

COc1cccc(NC(=O)C2CCC3(CC2)CN(CC(=O)NC(C)(C)C)C3)c1 [Example 75] and COc1cccc(NC(=O)C2CCC3(CC2)CN(CC(=O)NC2(C(F)(F)F)CC2)C3)c1 [Example 112] are within 1.5-fold of each other in IC50: 1080 nM for the first, 1430 nM for the second.

First: CC1(S(=O)(=O)NCCN2CC3(CCC(C(=O)Nc4cc(F)cc(C(F)F)c4)CC3)C2)CC1 [Example 76]
Second: CC(C)(C)S(=O)(=O)CCN1CC2(CCC(C(=O)Nc3cc(F)cc(C(F)F)c3)CC2)C1 [Example 87]
The IC50 of the first is 1.6-fold lower: 550 nM for the first, 855 nM for the second. The first is the more potent here.

O=C(Nc1cc(F)cc(Cl)c1)C1CCC2(CC1)CN(CC(F)C1CCCC1)C2 (centres unmarked) [Example 77] and O=C(Nc1cc(F)cc(C(F)F)c1)C1CCC2(CC1)CN(CC(F)C1CCCC1)C2 (centres unmarked) [Example 93] are within 1.5-fold of each other in IC50: 439 nM for the first, 645 nM for the second.

O=C(Nc1cc(F)cc(C(F)F)c1)C1CCC2(CC1)CN(CCS(=O)(=O)c1ccccc1)C2 [Example 80] and O=C(Nc1cc(F)cc(Cl)c1)C1CCC2(CC1)CN(CCS(=O)(=O)c1ccccc1)C2 [Example 91] are within 1.5-fold of each other in IC50: 428 nM for the first, 576 nM for the second.

First: COc1cc(F)cc(NC(=O)C2CCC3(CC2)CN(CC(=O)NC2(C(F)(F)F)CC2)C3)c1 [Example 82]
Second: COc1cc(F)cc(NC(=O)C2CCC3(CC2)CN(CC(=O)NC2(C(F)(F)F)CCC2)C3)c1 [Example 84]
The IC50 of the first is 2.2-fold higher: 238 nM for the first, 110 nM for the second. The second is the more potent here.

First: O=C(CN1CC2(CCC(C(=O)Nc3cc(F)cc(C(F)F)c3)CC2)C1)NC1(C(F)(F)F)COC1 [Example 86]
Second: O=C(CN1CC2(CCC(C(=O)Nc3cc(F)cc(Cl)c3)CC2)C1)NC1(C(F)(F)F)COC1 [Example 89]
The IC50 of the first is 1.5-fold lower: 344 nM for the first, 522 nM for the second.

Going from COc1cc(F)cc(NC(=O)C2CCC3(CC2)CN(CCS(=O)(=O)C(C)(C)C)C3)c1 [Example 88] to CC(C)(C)S(=O)(=O)CCN1CC2(CCC(C(=O)Nc3cc(F)cc(Cl)c3)CC2)C1 [Example 95], the IC50 falls from 1010 nM to 597 nM (1.7-fold).

COc1cc(F)cc(NC(=O)C2CCC3(CC2)CN(CC(F)(F)C2CCCCC2)C3)c1 [Example 90] and O=C(Nc1cc(F)cc(C(F)F)c1)C1CCC2(CC1)CN(CC(F)(F)C1CCCCC1)C2 [Example 92] are within 1.5-fold of each other in IC50: 802 nM for the first, 905 nM for the second.

Going from N#CC1(CN2CC3(CCC(C(=O)Nc4cc(F)cc(C(F)F)c4)CC3)C2)CCCCC1 [Example 94] to N#CC1(CN2CC3(CCC(C(=O)Nc4cc(F)cc(Cl)c4)CC3)C2)CCCCC1 [Example 98], the IC50 falls from 612 nM to 352 nM (1.7-fold). The second is the more potent here.

COc1cc(F)cc(NC(=O)C2CCC3(CC2)CN(CC2(C#N)CCCCC2)C3)c1 [Example 96] and COc1cc(F)cc(NC(=O)C2CCC3(CC2)CN(CC2(C#N)CCC(F)(F)CC2)C3)c1 [Example 97] are within 1.5-fold of each other in IC50: 814 nM for the first, 550 nM for the second.

N#CC1(CN2CC3(CCC(C(=O)Nc4cc(F)cc(C(F)F)c4)CC3)C2)CCC(F)(F)CC1 [Example 99] and N#CC1(CN2CC3(CCC(C(=O)Nc4cccc(Cl)c4)CC3)C2)CCC(F)(F)CC1 [Example 110] are within 1.5-fold of each other in IC50: 537 nM for the first, 706 nM for the second.

O=C(Nc1cccc(Cl)c1)C1CCC2(CC1)CN(CC(F)(F)C1CCCCC1)C2 [Example 101] and N#CC1(CN2CC3(CCC(C(=O)Nc4cccc(Cl)c4)CC3)C2)CCCCC1 [Example 103] are within 1.5-fold of each other in IC50: 488 nM for the first, 544 nM for the second.

O=C(Nc1cccc(Cl)c1)C1CCC2(CC1)CN(CCS(=O)(=O)c1ccccc1)C2 [Example 102] and CC(C)(C)S(=O)(=O)CCN1CC2(CCC(C(=O)Nc3cccc(Cl)c3)CC2)C1 [Example 106] are within 1.5-fold of each other in IC50: 497 nM for the first, 739 nM for the second.

O=C(CN1CC2(CCC(C(=O)Nc3cccc(Cl)c3)CC2)C1)NC1(C(F)(F)F)CC1 [Example 104] and O=C(CN1CC2(CCC(C(=O)Nc3cccc(Cl)c3)CC2)C1)NC1(C(F)(F)F)CCC1 [Example 105] are within 1.5-fold of each other in IC50: 302 nM for the first, 204 nM for the second.

First: O=C(CN1CC2(CCC(C(=O)Nc3cccc(OC(F)F)c3)CC2)C1)NC1(C(F)(F)F)CC1 [Example 108]
Second: O=C(CN1CC2(CCC(C(=O)Nc3cccc(OC(F)F)c3)CC2)C1)NC1(C(F)(F)F)CCC1 [Example 109]
The IC50 of the first is 1.6-fold higher: 364 nM for the first, 231 nM for the second.

O=C(CN1CC2(CCC(C(=O)Nc3cccc(C(F)F)c3)CC2)C1)NC1(C(F)(F)F)CC1 [Example 111] and Cc1cccc(NC(=O)C2CCC3(CC2)CN(CC(=O)NC2(C(F)(F)F)CC2)C3)c1 [Example 116] are within 1.5-fold of each other in IC50: 932 nM for the first, 691 nM for the second.

[2H]C([2H])([2H])C(NC(=O)CN1CC2(CCC(C(=O)Nc3cc(F)cc(OC)c3)CC2)C1)(C([2H])([2H])[2H])C([2H])([2H])[2H] [Example 113] and O=C(CN1CC2(CCC(C(=O)Nc3cc(F)cc(OC(F)F)c3)CC2)C1)NC1(C(F)(F)F)CC1 [Example 119] are within 1.5-fold of each other in IC50: 415 nM for the first, 366 nM for the second.

CCOc1cccc(NC(=O)C2CCC3(CC2)CN(CC(=O)NC2(C(F)(F)F)CC2)C3)c1 [Example 114] and O=C(CN1CC2(CCC(C(=O)Nc3ccc(Cl)c(F)c3)CC2)C1)NC1(C(F)(F)F)CC1 [Example 120] are within 1.5-fold of each other in IC50: 1130 nM for the first, 1070 nM for the second.

O=C(CN1CC2(CCC(C(=O)Nc3ccc(F)c(Cl)c3)CC2)C1)NC1(C(F)(F)F)CC1 [Example 115] and O=C(CN1CC2(CCC(C(=O)Nc3ccc(F)c(OC(F)(F)F)c3)CC2)C1)NC1(C(F)(F)F)CC1 [Example 123] are within 1.5-fold of each other in IC50: 219 nM for the first, 297 nM for the second.

First: Cc1cc(F)cc(NC(=O)C2CCC3(CC2)CN(CC(=O)NC2(C(F)(F)F)CC2)C3)c1 [Example 117]
Second: N#CC1(CN2CC3(CCC(C(=O)Nc4cc(F)cc(Cl)c4)CC3)C2)CC1 [Example 118]
The IC50 of the first is 2.4-fold lower: 221 nM for the first, 529 nM for the second.

N#CC1(CN2CC3(CCC(C(=O)Nc4cc(F)cc(Cl)c4)CC3)C2)CCC1 [Example 122] was tested, and the IC50 was 750 nM.
